The structures appear in SMILES notation.

We go through 3 molecules from ChEMBL document CHEMBL5649166, “RIP3 induces apoptosis independent of pronecrotic kinase activity” (Mol Cell, 2014).

The target in experiment [1] is Mitogen-activated protein kinase kinase kinase 20 (Homo sapiens) (UniProt Q9NYL2). As to the kind of experiment: Inhibition of human ZAK/MLTK using myelin basic protein as substrate at 1 uM in presence of 32P-ATP by Hotspot assay relative to control; values are per cent of control.
Experiment [2] addresses T1, Aurora kinase A (Homo sapiens) (UniProt O14965).
T1 sequence (whole entry): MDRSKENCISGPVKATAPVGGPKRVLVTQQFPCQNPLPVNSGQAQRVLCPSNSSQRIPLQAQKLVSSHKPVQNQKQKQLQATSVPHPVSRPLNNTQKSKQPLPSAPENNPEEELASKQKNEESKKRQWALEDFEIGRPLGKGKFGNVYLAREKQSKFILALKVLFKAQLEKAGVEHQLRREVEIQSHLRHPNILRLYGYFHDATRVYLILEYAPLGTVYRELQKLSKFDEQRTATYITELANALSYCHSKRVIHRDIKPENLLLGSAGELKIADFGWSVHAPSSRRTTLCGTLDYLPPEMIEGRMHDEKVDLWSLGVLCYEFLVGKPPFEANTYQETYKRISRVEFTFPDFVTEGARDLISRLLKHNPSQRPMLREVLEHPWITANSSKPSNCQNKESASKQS
As to the kind of experiment: Inhibition of human Aurora A using H-LRRASLG as substrate at 1 uM in presence of 32P-ATP by Hotspot assay relative to control; values are per cent of control.

In experiment [3] the target is Death-associated protein kinase 3 (Homo sapiens) (UniProt O43293). As to the kind of experiment: Inhibition of human ZIPK/DAPK3 using KKLNRTLSFAEPG as substrate at 1 uM in presence of 32P-ATP by Hotspot assay relative to control; values are per cent of control.
The target of experiment [4] is Homeodomain-interacting protein kinase 3 (Homo sapiens) (UniProt Q9H422). As to the kind of experiment: Inhibition of human HIPK3 using myelin basic protein as substrate at 1 uM in presence of 32P-ATP by Hotspot assay relative to control; values are per cent of control.
Experiment [5] deals with Focal adhesion kinase 1 (Homo sapiens) (UniProt Q05397). As to the kind of experiment: Inhibition of human FAK/PTK2 using poly[Glu:Tyr] (4:1) as substrate at 1 uM in presence of 32P-ATP by Hotspot assay relative to control; values are per cent of control.
Experiment [6] addresses T2, Serine/threonine-protein kinase STK11 (Homo sapiens) (UniProt Q15831).
T2 sequence (whole entry): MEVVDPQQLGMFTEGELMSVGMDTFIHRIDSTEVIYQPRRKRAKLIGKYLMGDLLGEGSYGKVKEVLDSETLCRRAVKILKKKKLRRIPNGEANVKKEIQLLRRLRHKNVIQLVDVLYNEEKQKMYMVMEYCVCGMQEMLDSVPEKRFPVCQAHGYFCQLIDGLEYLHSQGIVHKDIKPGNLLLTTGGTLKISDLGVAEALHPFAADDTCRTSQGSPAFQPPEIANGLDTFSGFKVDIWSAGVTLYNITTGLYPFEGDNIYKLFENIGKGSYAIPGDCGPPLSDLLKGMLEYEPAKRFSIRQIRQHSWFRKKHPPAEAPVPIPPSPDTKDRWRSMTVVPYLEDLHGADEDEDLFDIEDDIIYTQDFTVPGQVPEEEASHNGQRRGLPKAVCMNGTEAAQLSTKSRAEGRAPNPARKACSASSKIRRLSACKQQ
As to the kind of experiment: Inhibition of human LKB1 using LSNLYHQGKFLQTFCGSPLYRRR as substrate at 1 uM in presence of 32P-ATP by Hotspot assay relative to control; values are per cent of control.

For experiment [7], the target named is Tyrosine-protein kinase ABL2 (Homo sapiens) (UniProt P42684). As to the kind of experiment: Inhibition of human ABL2/ARG using EAIYAAPFAKKK as substrate at 1 uM in presence of 32P-ATP by Hotspot assay relative to control; values are per cent of control.
The target of experiment [8] is Calcium/calmodulin-dependent protein kinase type 1G (Homo sapiens) (UniProt Q96NX5). As to the kind of experiment: Inhibition of human CAMK1g using KKALRRQETVDAL as substrate at 1 uM in presence of 32P-ATP by Hotspot assay relative to control; values are per cent of control.

Mitogen-activated protein kinase kinase kinase 20 (Homo sapiens), sequence (Q9NYL2 2-800 limits assumed): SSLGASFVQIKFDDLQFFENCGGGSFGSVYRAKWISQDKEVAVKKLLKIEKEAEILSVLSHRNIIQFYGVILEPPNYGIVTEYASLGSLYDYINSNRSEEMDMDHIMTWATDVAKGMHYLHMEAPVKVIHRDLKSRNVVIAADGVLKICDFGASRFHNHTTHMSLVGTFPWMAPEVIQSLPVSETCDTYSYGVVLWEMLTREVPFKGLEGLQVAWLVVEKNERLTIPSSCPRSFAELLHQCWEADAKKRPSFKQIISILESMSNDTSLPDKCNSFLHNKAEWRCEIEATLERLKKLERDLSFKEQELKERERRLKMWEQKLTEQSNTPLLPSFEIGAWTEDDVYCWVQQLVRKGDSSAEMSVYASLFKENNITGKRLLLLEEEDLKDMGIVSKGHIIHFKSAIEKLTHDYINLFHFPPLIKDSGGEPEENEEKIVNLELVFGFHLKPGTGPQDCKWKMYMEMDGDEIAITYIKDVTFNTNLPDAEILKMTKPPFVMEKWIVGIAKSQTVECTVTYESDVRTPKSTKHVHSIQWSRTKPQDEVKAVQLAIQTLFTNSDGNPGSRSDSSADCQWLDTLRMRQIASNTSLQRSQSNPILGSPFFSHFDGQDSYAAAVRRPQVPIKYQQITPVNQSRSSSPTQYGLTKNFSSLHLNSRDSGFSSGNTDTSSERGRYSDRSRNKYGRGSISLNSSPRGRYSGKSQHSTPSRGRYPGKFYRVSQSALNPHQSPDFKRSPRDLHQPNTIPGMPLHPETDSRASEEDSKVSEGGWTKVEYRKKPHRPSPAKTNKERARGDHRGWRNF
Homeodomain-interacting protein kinase 3 (Homo sapiens), sequence (Q9H422 whole entry, looked up): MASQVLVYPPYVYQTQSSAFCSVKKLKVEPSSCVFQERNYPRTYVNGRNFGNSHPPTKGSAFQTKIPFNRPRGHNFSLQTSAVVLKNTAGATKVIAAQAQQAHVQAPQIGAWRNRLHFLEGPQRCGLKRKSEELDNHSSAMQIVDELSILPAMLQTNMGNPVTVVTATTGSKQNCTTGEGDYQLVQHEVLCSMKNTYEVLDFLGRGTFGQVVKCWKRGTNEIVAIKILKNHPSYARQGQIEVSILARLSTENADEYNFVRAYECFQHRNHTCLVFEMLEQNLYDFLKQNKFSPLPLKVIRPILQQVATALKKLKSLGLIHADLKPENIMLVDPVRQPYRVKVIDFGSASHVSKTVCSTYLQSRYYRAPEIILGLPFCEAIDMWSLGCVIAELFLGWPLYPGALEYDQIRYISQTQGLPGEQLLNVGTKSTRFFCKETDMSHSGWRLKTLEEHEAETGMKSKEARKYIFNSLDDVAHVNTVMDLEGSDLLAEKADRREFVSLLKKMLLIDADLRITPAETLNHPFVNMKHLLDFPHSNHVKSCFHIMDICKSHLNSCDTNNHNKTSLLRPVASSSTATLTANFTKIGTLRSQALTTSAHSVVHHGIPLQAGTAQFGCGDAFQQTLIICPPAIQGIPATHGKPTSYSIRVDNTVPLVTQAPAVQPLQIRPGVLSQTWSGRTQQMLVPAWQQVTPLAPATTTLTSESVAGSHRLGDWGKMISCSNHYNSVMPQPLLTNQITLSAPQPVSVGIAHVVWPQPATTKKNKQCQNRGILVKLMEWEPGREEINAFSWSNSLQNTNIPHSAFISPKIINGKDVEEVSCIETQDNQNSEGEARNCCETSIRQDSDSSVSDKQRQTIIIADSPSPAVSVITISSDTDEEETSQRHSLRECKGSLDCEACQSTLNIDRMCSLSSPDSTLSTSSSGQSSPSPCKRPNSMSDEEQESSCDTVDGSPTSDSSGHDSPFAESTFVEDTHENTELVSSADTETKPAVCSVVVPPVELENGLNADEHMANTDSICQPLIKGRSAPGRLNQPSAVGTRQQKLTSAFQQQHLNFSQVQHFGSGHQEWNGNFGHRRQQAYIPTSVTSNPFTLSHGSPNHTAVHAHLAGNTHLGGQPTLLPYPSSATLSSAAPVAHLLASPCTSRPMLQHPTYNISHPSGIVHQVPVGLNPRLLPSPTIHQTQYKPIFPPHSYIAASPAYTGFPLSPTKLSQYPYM
Tyrosine-protein kinase ABL2 (Homo sapiens), sequence (P42684 whole entry): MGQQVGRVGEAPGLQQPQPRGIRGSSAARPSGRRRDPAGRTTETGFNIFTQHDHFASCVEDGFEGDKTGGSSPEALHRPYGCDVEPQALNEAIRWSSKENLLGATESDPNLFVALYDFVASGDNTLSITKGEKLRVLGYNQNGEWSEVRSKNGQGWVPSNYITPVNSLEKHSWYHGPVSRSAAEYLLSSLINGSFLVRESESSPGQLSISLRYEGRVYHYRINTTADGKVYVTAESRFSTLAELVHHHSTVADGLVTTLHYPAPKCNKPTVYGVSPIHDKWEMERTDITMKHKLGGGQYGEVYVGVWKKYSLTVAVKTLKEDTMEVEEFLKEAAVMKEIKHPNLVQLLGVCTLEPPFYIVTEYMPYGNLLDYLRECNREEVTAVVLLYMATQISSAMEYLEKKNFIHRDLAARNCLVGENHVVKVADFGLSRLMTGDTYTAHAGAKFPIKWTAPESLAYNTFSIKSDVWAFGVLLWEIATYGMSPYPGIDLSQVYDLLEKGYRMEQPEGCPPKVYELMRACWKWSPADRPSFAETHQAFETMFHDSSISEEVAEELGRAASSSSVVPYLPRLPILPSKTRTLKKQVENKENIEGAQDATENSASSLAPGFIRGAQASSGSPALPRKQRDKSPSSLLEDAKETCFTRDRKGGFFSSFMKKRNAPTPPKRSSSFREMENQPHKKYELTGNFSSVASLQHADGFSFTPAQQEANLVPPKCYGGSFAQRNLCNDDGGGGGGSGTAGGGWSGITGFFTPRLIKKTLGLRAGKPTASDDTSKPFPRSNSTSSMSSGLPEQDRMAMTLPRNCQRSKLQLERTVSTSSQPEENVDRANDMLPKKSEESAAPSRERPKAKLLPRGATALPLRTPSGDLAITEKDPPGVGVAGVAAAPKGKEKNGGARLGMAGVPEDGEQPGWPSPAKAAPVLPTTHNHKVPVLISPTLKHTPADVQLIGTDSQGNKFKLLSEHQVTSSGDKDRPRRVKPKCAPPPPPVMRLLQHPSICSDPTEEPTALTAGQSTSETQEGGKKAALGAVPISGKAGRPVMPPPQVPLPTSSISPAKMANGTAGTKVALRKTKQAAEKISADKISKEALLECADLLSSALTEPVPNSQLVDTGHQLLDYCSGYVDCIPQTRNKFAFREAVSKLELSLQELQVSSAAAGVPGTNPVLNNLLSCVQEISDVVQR
Focal adhesion kinase 1 (Homo sapiens), sequence (Q05397 2-1052 limits assumed): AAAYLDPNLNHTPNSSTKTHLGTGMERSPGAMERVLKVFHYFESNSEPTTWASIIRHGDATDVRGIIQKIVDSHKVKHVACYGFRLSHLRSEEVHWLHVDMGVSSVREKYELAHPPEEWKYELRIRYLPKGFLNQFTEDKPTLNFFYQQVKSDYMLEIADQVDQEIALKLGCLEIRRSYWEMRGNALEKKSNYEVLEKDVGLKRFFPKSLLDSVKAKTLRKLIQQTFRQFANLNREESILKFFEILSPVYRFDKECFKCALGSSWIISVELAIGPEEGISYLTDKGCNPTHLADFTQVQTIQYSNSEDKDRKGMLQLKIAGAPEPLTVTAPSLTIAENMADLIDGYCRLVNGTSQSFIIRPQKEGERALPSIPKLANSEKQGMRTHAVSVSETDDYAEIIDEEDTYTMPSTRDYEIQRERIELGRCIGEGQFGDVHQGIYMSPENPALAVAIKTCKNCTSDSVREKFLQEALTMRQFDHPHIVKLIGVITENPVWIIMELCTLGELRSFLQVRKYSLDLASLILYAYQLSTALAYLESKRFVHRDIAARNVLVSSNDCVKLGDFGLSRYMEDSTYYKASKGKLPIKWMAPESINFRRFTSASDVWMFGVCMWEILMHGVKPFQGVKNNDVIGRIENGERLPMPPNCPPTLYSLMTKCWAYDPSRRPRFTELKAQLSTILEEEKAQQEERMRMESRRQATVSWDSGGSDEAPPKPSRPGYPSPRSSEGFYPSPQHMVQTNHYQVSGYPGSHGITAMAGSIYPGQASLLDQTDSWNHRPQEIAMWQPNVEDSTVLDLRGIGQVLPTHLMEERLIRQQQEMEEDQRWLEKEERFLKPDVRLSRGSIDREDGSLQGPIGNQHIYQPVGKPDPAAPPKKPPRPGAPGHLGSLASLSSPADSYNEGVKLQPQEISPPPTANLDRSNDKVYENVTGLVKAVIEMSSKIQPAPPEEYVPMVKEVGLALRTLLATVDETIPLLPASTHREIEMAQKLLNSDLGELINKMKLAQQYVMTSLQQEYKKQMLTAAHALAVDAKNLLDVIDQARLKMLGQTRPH
Death-associated protein kinase 3 (Homo sapiens), sequence (O43293 whole entry, looked up): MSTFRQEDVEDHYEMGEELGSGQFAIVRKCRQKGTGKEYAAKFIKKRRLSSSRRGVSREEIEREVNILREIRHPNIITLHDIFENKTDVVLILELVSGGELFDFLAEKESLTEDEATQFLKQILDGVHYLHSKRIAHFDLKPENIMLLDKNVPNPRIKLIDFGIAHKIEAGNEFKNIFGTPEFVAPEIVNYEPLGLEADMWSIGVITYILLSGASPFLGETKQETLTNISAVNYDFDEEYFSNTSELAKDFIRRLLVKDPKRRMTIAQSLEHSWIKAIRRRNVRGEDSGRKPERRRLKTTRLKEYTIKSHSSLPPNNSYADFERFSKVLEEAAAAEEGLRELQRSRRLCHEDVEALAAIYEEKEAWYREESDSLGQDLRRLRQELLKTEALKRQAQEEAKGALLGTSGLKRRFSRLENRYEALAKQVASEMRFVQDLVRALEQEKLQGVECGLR

Regarding `Cc1cc(-c2cnc(N)c3c(-c4ccc5scnc5c4)csc23)n(C)n1`, the residual activity in experiment [1] came to 21.2%; in experiment [2], 99%; in experiment [3], 91.3%; in experiment [4] it was 101%; in experiment [5] it was 97.3%; in experiment [6], 96.8%. The residual activity in experiment [7] was 7.38%; in experiment [8] it was 90.9%.
Turning to `CC(C)S(=O)(=O)c1ccc2nccc(Nc3ccc4scnc4c3)c2c1`, the residual activity in experiment [1] amounted to 94.5%; in experiment [2] it was 95.9%; in experiment [3], 102%; in experiment [4], 104%; in experiment [5], 93.9%; in experiment [6], 59%. The residual activity in experiment [7] was determined as 12%; in experiment [8] it was 85.6%.
In the case of `CNC(=O)c1ccc2c(c1)ncn2-c1ccc(CC(=O)OC(C)(C)C)cc1`, the residual activity in experiment [1] was 41.7%; in experiment [2], 101%; in experiment [3] it was 96.8%; in experiment [4] it was 102%; in experiment [5], 102%; in experiment [6], 99%. Moreover, the residual activity in experiment [7] was 78.2%; in experiment [8] it was 94.2%.
